Molecules are shown by their SMILES. Counter-ions that a name gives are not always drawn.

This assay deals with Acinetobacter baumannii ATCC17978. The assay is described as follows: Antimicrobial susceptibility testing: 90% growth inhibitory concentration (IC90) determination, Iso-Sensitest broth. In kind it is cell-based. To be noted: 90% growth inhibitory concentration, Acinetobacter baumannii ATCC17978, Iso-Sensitest broth, OD 600 nm over 16 h; read-out: ATCC17978 IC90. The essentials:
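A. baumannii ATCC17978 grown in Iso-Sensitest broth across 10 compound concentrations at 35±2 °C.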
The IC90 is the concentration needed for an effect of 90%. Take `Cc1cc(Nc2nccn3c(-c4ccc(OC(F)F)cc4)cnc23)ccc1C(=O)N1CCN(C(=O)C2CCCN2)CC1` (centres unmarked) [Example 177, [4-[[3-[4-(difluoromethoxy)phenyl]imidazo[1,2-a]pyrazin-8-yl]amino]-2-methyl-phenyl]-[4-(pyrrolidine-2-carbonyl)piperazin-1-yl]methanone hydrochloride]: the IC90 came out at 210 nM.
In the case of `COc1ccc(-c2cnc3c(Nc4ccc(C(=O)N5CCN(C(=O)[C@@H]6CCCN6)CC5)c(C)c4)nccn23)cc1F` [Example 178, [4-[[3-(3-fluoro-4-methoxy-phenyl)imidazo[1,2-a]pyrazin-8-yl]amino]-2-methyl-phenyl]-[4-[(2S)-pyrrolidine-2-carbonyl]piperazin-1-yl]methanone hydrochloride] it was 89 nM.
For the compound `COc1ccc(-c2cnc3c(Nc4ccc(C(=O)N5CCN(C(=O)[C@H]6CCCN6)CC5)c(C)c4)nccn23)cc1F` [Example 179, [4-[[3-(3-fluoro-4-methoxy-phenyl)imidazo[1,2-a]pyrazin-8-yl]amino]-2-methyl-phenyl]-[4-[(2R)-pyrrolidine-2-carbonyl]piperazin-1-yl]methanone hydrochloride], the IC90 amounted to 190 nM.
In the case of `Cc1cc(Nc2nccn3c(-c4ccc(OC(F)F)cc4)cnc23)ccc1C(=O)N1CCN(C(=O)[C@@H]2C[C@@H](O)CN2)CC1` [Example 180, [4-[[3-[4-(difluoromethoxy)phenyl]imidazo[1,2-a]pyrazin-8-yl]amino]-2-methyl-phenyl]-[4-[(2S,4R)-4-hydroxypyrrolidine-2-carbonyl]piperazin-1-yl]methanone hydrochloride] it was 270 nM; in that of `Cc1cc(Nc2nccn3c(-c4ccc(OC(F)F)cc4)cnc23)ccc1C(=O)N1CCC(C(=O)N2CCNCC2CO)CC1` (centres unmarked) [Example 181, [4-[[3-[4-(difluoromethoxy)phenyl]imidazo[1,2-a]pyrazin-8-yl]amino]-2-methyl-phenyl]-[4-[2-(hydroxymethyl)piperazine-1-carbonyl]-1-piperidyl]methanone hydrochloride], 130 nM; in that of `Cc1cc(Nc2nccn3c(-c4ccc(OC(F)F)cc4)cnc23)ccc1C(=O)N1CCN(C(=O)[C@@H]2C[C@H](O)CN2)CC1` [Example 182, [4-[[3-[4-(difluoromethoxy)phenyl]imidazo[1,2-a]pyrazin-8-yl]amino]-2-methyl-phenyl]-[4-[(2S,4S)-4-hydroxypyrrolidine-2-carbonyl]piperazin-1-yl]methanone hydrochloride hydrochloride], 180 nM.
Next, `Cc1cc(Nc2nccn3c(-c4ccc(OC(F)F)cc4)cnc23)ccc1C(=O)N1CCC(C(=O)N2CCNC(CO)C2)CC1` (centres unmarked) [Example 183, [4-[[3-[4-(difluoromethoxy)phenyl]imidazo[1,2-a]pyrazin-8-yl]amino]-2-methyl-phenyl]-[4-[3-(hydroxymethyl)piperazine-1-carbonyl]-1-piperidyl]methanone hydrochloride]: 270 nM.
In the case of `CCc1cc(Nc2nccn3c(-c4ccc(OC)c(F)c4F)cnc23)ccc1C(=O)N1CCN(C(=O)[C@@H]2C[C@@H](O)CN2)CC1` [Example 185, [4-[[3-(2,3-difluoro-4-methoxy-phenyl)imidazo[1,2-a]pyrazin-8-yl]amino]-2-ethyl-phenyl]-[4-[(2S,4R)-4-hydroxypyrrolidine-2-carbonyl]piperazin-1-yl]methanone hydrochloride] it was 220 nM; in that of `COc1ccc(-c2cnc3c(Nc4ccc(C(=O)N5CCN(C(=O)[C@H]6CCNC6)CC5)c(C)c4)nccn23)cc1F` [Example 186, [4-[[3-(3-fluoro-4-methoxy-phenyl)imidazo[1,2-a]pyrazin-8-yl]amino]-2-methyl-phenyl]-[4-[(3S)-pyrrolidine-3-carbonyl]piperazin-1-yl]methanone hydrochloride], 250 nM.
As to `COc1ccc(-c2cnc3c(Nc4ccc(C(=O)N5CCN(C(=O)C6CNC6)CC5)c(C)c4)nccn23)cc1F` [Example 187, [4-(azetidine-3-carbonyl)piperazin-1-yl]-[4-[[3-(3-fluoro-4-methoxy-phenyl)imidazo[1,2-a]pyrazin-8-yl]amino]-2-methyl-phenyl]methanone hydrochloride], the IC90 was 230 nM.
In the case of `COc1ccc(-c2cnc3c(Nc4ccc(C(=O)N5CCN(C(=O)[C@H]6CCNC[C@@H]6O)CC5)c(C)c4)nccn23)c(F)c1F` [Example 192, [4-[[3-(2,3-difluoro-4-methoxy-phenyl)imidazo[1,2-a]pyrazin-8-yl]amino]-2-methyl-phenyl]-[4-[(3R,4S)-3-hydroxypiperidine-4-carbonyl]piperazin-1-yl]methanone hydrochloride] it was 290 nM.
Next, `COc1ccc(-c2cnc3c(Nc4ccc(C(=O)N5CCN(C(=O)[C@@H]6CCNC[C@H]6O)CC5)c(C)c4)nccn23)c(F)c1F` [Example 193, [4-[[3-(2,3-difluoro-4-methoxy-phenyl)imidazo[1,2-a]pyrazin-8-yl]amino]-2-methyl-phenyl]-[4-[(3S,4R)-3-hydroxypiperidine-4-carbonyl]piperazin-1-yl]methanone hydrochloride]: 290 nM; `CCc1cc(Nc2nccn3c(-c4ccc(OCC#N)c(F)c4F)cnc23)ccc1C(=O)N1CCN(C(=O)C2CCNCC2)CC1` [Example 194, 2-[4-[8-[3-ethyl-4-[4-(piperidine-4-carbonyl)piperazine-1-carbonyl]anilino]imidazo [1,2-a]pyrazin-3-yl]-2,3-difluoro-phenoxy]acetonitrile formate]: 290 nM; `Cc1cc(Nc2nccn3c(-c4ccc(OCC#N)c(F)c4F)cnc23)ccc1C(=O)N1CCN(C(=O)[C@H]2CCNC2)CC1` [Example 201, 2-[2,3-difluoro-4-[8-[3-methyl-4-[4-[(3S)-pyrrolidine-3-carbonyl]piperazine-1-carbonyl]anilino]imidazo[1,2-a]pyrazin-3-yl]phenoxy] acetonitrile; formic acid]: 100 nM.
Next, `COc1ccc(-c2cnc3c(Nc4ccc(C(=O)N5CCN(C(=O)[C@@H]6CCNC6)CC5)c(C)c4)nccn23)c(F)c1F` [Example 202, (R)-(4-(4-((3-(2,3-difluoro-4-methoxyphenyl)imidazo[1,2-a]pyrazin-8-yl)amino)-2-methylbenzoyl)piperazin-1-yl) (pyrrolidin-3-yl)methanone hydrochloride]: 93 nM; `COc1ccc(-c2cnc3c(Nc4ccc(C(=O)N5CCN(C(=O)C6CNC6)CC5)c(C)c4)nccn23)c(F)c1F` [Example 203, [4-(azetidine-3-carbonyl)piperazin-1-yl]-[4-[[3-(2,3-difluoro-4-methoxy-phenyl)imidazo[1,2-a]pyrazin-8-yl]amino]-2-methyl-phenyl]methanone; hydrochloride]: 190 nM; `COc1ccc(-c2cnc3c(Nc4ccc(C(=O)N5CCN(C(=O)C6C7CCC6CNC7)CC5)c(C)c4)nccn23)c(F)c1F` (centres unmarked) [Example 205, [4-(3-azabicyclo[3.2.1]octane-8-carbonyl)piperazin-1-yl]-[4-[[3-(2,3-difluoro-4-methoxy-phenyl)imidazo[1,2-a]pyrazin-8-yl]amino]-2-methyl-phenyl]methanone hydrochloride]: 110 nM.

For the origin of these results see patent US20230011869A1 (Hoffmann-La Roche Inc., priority 2018, published 2023).
